From PMC4013053, “Identification of Selective Small Molecule Inhibitors of the Nucleotide-Binding Oligomerization Domain 1 (NOD1) Signaling Pathway” (PLoS ONE, 2014)

What was measured:
[1] = Immobilized artificial membrane (IAM) binding; assay type: physicochemical
Text: (§1) Physicochemical analyses of compounds were completed at GSK.

TLR2 = TLR2 (Homo sapiens, UniProt O60603); assay: Pam2CSK4-stimulated IL-8 release in 293/hTLR2 cells; assay type: cell-based; conditions: IL-8 released into medium
full length human RIP2 = target: T1, full length human RIP2 (Homo sapiens, UniProt O43353); assay: RIP2 kinase autophosphorylation (ADP-Glo); assay type: biochemical; conditions: RIPK2 autophosphorylation
T1 construct: autophosphorylation of full length human FLAG-6His tagged RIP2 expressed and purified from baculovirus; FLAG; 6His; made in house
Method: Direct effects of compounds on RIP2 kinase activity was determined by autophosphorylation of full length human FLAG-6His tagged RIP2 expressed and purified from baculovirus. Enzyme was pre-incubated with compounds in assay buffer (50 mM HEPES pH 7.5, 25 mM MgCl2, 0.05%[w/v] CHAPS, 1 mM DTT and 0.05 mg/mL BSA) in 384-well plates, and then incubated with 10 µM ATP for 2 hours at room temperature. The amount of ADP generated was measured using the ADP-Glo universal ADP detection assay for kinases (Promega) and luminescence quantified on a ViewLux imager.

[2] = Chromatographic hydrophobicity index (Chrom log D); assay type: physicochemical; conditions: pH 7.4
Text: as §1

NOD1 [3] = target: T2, NOD1 (Homo sapiens, UniProt Q9Y239); assay: Tri-DAP-stimulated IL-8 secretion in primary human monocytes; assay type: cell-based; parameters: Monocytes were purified from heparinized human whole blood; endogenous in cells; host or cells: primary human blood monocytes; conditions: human primary peripheral blood monocytes, IL-8 released into medium; read-out: IC50 Monocyte Tri-DAP
T2 sequence (Q9Y239 1-953): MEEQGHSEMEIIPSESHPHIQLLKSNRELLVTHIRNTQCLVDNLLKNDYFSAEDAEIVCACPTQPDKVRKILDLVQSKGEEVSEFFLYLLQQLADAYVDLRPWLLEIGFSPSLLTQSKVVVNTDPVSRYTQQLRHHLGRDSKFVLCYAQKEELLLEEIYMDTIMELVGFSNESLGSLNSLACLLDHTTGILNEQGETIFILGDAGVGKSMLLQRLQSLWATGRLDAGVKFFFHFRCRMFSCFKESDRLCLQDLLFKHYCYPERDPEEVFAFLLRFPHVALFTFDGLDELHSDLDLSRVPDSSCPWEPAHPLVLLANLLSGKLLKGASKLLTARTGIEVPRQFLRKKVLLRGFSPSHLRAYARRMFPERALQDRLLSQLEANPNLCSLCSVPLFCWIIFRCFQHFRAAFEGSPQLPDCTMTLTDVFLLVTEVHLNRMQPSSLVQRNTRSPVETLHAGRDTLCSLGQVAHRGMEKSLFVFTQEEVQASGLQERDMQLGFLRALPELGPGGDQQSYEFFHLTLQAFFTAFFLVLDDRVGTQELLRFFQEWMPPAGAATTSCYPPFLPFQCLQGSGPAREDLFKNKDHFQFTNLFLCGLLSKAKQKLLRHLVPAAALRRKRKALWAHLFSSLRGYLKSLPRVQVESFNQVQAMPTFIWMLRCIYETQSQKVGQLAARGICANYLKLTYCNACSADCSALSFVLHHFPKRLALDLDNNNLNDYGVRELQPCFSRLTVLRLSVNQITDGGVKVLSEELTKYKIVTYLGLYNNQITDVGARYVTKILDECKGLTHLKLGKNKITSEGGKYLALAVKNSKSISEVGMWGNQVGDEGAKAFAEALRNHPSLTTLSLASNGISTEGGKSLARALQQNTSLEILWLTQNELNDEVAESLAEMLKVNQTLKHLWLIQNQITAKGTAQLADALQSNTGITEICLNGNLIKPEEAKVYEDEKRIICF
Method: Monocytes were purified from heparinized human whole blood by centrifugation on Ficoll (Histopaque 1077) followed by Percoll gradients. Monocyte purity was >95% by morphological assessment of Wright’s stained cytospins. Cells were seeded at 100,000 per well in 96-well plates in RPMI containing 10%HI-FBS, pre-incubated for 1 hour with compounds, and then stimulated with either 25 µg/mL Tri-DAP or 1 µg/mL MDP. The concentration of IL-8 in medium samples collected after 24-hour treatment was determined by HTRF whereas IL-1β, IL-6 and TNFα were measured using the MS6000 human pro-inflammatory-4 II tissue culture kit (Meso Scale Discovery).

[4] = Permeability across an artificial membrane; assay type: in vitro ADME; conditions: PAMPA
Text: as §1

NOD1 [5] = assay: Tri-DAP stimulated IL-8 release in HT-29 cells; assay type: cell-based, human; conditions: HT-29, 50 µg/mL Tri-DAP 24 hours, same supernatants
Method: (§2) For assay, cells were seeded into 96 well plates (90,000 cells/well) in DMEM containing 1% FBS and pre-incubated with compounds for 1 hour before addition of either 25 µg/mL Tri-DAP or 1 µg/mL MDP. The level of IL-8 released into medium after 24-hour incubation was determined by HTRF assay (Cisbio) as described above and fluorescence measured on an Envision model 2102 multilabel plate reader (Perkin Elmer). The activity of compounds against NOD1-induced type I interferon response was determined by inhibition of Tri-DAP stimulated IP-10 secretion in HT-29 cells, maintained in the same medium as for HCT116 cells. The HT-29 cells were seeded into 96 well plates (60,000 cells/well) in DMEM with 1% FBS, pre-incubated with compounds for 1 hour and stimulated for 24 hours with 50 µg/mL Tri-DAP. The concentration of IL-8 released into the medium was measured by HTRF as above, IP-10 was measured using the IP-10/CXCL10 Quantikine ELISA kit (R&D Systems), and IFNβ was measured using the MA6000 human IFN-β tissue culture kit (Meso Scale Discovery).

[6] = test system: NOD1-induced type I interferon response; assay: Tri-DAP stimulated IP-10 secretion in HT-29 cells; assay type: cell-based; conditions: Homo sapiens; HT-29, 50 µg/mL Tri-DAP 24 hours
Method: as §2

endogenous NOD1 = target: T3, endogenous NOD1 (Homo sapiens, UniProt Q9Y239); assay: Tri-DAP-stimulated IL-8 release in HCT116 cells; assay type: cell-based; conditions: HCT116, increasing compound concentrations 0.005–1 µM, Tri-DAP 0.6–75 µg/mL
T3 construct: Compound activity on endogenous NOD1 and NOD2 receptors was determined; host or cells: HCT116
T3 sequence (Q9Y239 1-953): T2 sequence (Q9Y239 1-953)

Sequence of TLR2 (O60603 21-784): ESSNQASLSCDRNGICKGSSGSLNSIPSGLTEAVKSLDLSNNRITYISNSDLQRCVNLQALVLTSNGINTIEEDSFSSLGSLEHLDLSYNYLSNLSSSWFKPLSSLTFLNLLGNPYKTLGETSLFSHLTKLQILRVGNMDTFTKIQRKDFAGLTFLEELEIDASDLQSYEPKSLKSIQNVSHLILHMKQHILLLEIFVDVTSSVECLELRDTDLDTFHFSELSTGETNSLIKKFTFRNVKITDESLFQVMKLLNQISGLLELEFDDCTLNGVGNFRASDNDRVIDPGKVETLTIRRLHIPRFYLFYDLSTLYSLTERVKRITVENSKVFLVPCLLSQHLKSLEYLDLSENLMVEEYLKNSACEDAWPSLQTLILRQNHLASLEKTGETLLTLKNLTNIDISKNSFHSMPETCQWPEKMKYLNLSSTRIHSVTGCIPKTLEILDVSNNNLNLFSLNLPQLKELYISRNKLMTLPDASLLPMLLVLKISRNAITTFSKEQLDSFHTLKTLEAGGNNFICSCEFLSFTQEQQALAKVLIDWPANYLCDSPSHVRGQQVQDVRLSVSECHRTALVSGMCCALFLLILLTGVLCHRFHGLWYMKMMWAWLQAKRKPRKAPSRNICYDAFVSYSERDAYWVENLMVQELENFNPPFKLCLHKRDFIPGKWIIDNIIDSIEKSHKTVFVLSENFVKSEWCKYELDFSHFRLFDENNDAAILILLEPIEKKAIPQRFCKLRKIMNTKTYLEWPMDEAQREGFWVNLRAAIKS
T1 sequence (O43353 whole entry): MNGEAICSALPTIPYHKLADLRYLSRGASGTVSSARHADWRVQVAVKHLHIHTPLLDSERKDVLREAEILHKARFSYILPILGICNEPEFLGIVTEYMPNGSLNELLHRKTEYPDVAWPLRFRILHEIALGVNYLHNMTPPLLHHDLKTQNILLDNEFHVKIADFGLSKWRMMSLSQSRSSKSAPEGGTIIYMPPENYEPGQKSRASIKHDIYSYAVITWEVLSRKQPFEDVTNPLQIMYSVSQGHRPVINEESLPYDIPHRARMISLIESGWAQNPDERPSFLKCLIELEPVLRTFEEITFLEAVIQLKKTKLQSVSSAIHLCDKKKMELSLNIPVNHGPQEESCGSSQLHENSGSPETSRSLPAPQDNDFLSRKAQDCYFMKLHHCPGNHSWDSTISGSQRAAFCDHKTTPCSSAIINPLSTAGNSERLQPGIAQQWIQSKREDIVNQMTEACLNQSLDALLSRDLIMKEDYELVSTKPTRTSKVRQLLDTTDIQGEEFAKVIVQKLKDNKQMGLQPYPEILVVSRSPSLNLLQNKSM

IAM binding [1] [log K]	IC50 (TLR2) [µM]	IC50 (full length human RIP2) [µM]	chromatographic logD [2]	IC50 (NOD1 [3]) [µM]	Papp [4] [×10⁻⁶ cm/s]	IC50 (NOD1 [5]) [µM]	IC50 [6] [µM]	SMILES	effect on Tri-DAP concentration response (IL-8) (endogenous NOD1)
2.41	> 50	> 100	5.95	3.2				Cn1c(=O)[nH]c(=O)c2c1nc(CCSc1ccccc1)n2Cc1ccccc1 [SB711]	
2.38	> 50	> 100	4.64	2	30			Cc1nc2ccc(NC(=O)c3cccc(NS(=O)(=O)c4ccc(F)cc4)c3)cc2s1 [GSK966]	

The next lines start with the compound.

SMILES	IAM binding [1] [log K]	IC50 (TLR2) [µM]	IC50 (full length human RIP2) [µM]	chromatographic logD [2]	IC50 (NOD1 [3]) [µM]	Papp [4] [×10⁻⁶ cm/s]	IC50 (NOD1 [5]) [µM]	IC50 [6] [µM]	effect on Tri-DAP concentration response (IL-8) (endogenous NOD1)
CCc1ccc(S(=O)(=O)Nc2cc(-n3c(C)nc4ccccc4c3=O)ccc2F)s1 [GSK223]	1.68	> 50	> 50	4.27	1	49			
Cc1nc2ccccc2c(=O)n1-c1ccc(Cl)c(NS(=O)(=O)c2ccccc2F)c1 [Compound 22]		> 50	> 50		0.06		0.03	0.08	progressive reduction in both the apparent EC50 and maximum response of Tri-DAP
Cc1ccc(S(=O)(=O)Nc2cccc(C(=O)Nc3ccc4nc(C)sc4c3)c2)cc1 [Compound 16]	2.45	> 50	> 50	4.89	0.2	22	0.04	0.25	progressive reduction in both the apparent EC50 and maximum response of Tri-DAP
